Laboratory results: US20260306460A1, “COMPOSITION FOR REMOVING AND INHIBITING SENESCENT CELLS, AND USES THEREOF” (LIFECEUTIX CO., LTD., priority 2023, published 2026)

Columns and labels:
Assay type in all cases: in vivo, mouse
naturally aged mice [1] = test: Open field test in naturally aged mice, Example 15; settings: untreated aged = 100%; 5 days; doses as p16 mRNA
Description: In the same manner as in Example 7-1 of WO2023-085787 A1, naturally aged mice were administered LX-405 (5% DMSO in PBS solution, 10 mg/kg, intraperitoneal administration), LX-801 (PBS, 100 mg/kg, intraperitoneal administration), LX-1102 (0.5% CMC-Na solution, 100 mg/kg, oral administration), LX-1801 (PBS, 50 mg/kg, intraperitoneal administration), LX-2101 (0.5% CMC-Na solution, 10 mg/kg, intraperitoneal administration), and LX-3403 (mouse anti-PD-1 antibody (BioXcell), 100 μg, intraperitoneal administration) for 5 days under the following conditions. The control group was administered only the solution in the same volume. After drug administration was completed, the method described in each Example below was performed. The mouse was sacrificed in the same manner as Example 7-2 and 7-6 of WO2023-085787 A1. Total RNA was extracted from liver tissue, and qRT-PCR was performed and analyzed using synthesized cDNA. […] The mRNA amounts of p16, MMP3, and IL6 after natural aging were induced were calculated as 100% and compared them with the mRNA amounts of p16, MMP3, and IL6 after treatment with the test compound. Furthermore, an open field test was performed to analyze aging-related frailty in mice using the same method as Example 7-7 of WO2023-085787 A1. […] The amount of activity evaluated after inducing aging was calculated as 100% and compared it with the amount of activity evaluated after treatment with the test compound.

[2] = test system: bleomycin-induced pulmonary fibrosis mice; test: Bleomycin-induced pulmonary fibrosis mice, Example 31, Table 56; settings: untreated = 100%
How it was run: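 Mice with bleomycin-induced pulmonary fibrosis, untreated or given test compound, with vehicle-only controls. Lung tissue collected for RNA extraction and qRT-PCR analysis.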

[3] = test system: carbon tetrachloride-induced liver fibrosis mice; test: Carbon tetrachloride-induced liver fibrosis mice, Example 31, Table 57; settings: CCl4-induced liver fibrosis mice, untreated = 100%
How it was run: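 Mice with induced hepatic fibrosis received either the test compound or, as controls, an equal volume of vehicle solution alone. Once dosing ended, liver tissue was harvested and total RNA was isolated. cDNA was synthesized from this RNA, and quantitative RT-PCR was run on it to measure hepatic mRNA levels of the fibrosis- and senescence-related genes.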

naturally aged mice [4] = test: Anti-aging evaluation in naturally aged mice, Example 31, Table 55; settings: for Femur Ctsk mRNA / Kidney Agtr1a mRNA / Liver IL6 mRNA / Liver MMP3 mRNA / Liver p16 mRNA / Open Field Test Time in Center: untreated = 100%; for Heart Sur2a mRNA / Joint Col2a1 mRNA / Skin Col1a1 mRNA / Skin SDF1 mRNA: untreated = 1.0; for Muscle Mass: untreated 0.64 g; for Fat Mass: untreated 0.82 g; for Cataract incidence: untreated 83%;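 for all read-outs here: Vehicle-dosed control mice received solution alone at matching volume, values compare test-compound-treated aged mice against that control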
[5] = test system: naturally aged C57BL6J mice; test: Serum IL6 and MCP1 (ELISA) in naturally aged mice, Example 21-5; settings: untreated aged = 100, LX-5701 360 mg/kg po, LX-2101 20 mg/kg ip, LX-2102 10 mg/kg ip, daily 21 days
Description: 22-month-old female C57BL6J mice (KRIBB Laboratory Animal Resource Center) were acclimated to the experimental environment for one week, after which the aged mice were randomly assigned to experimental and control groups. Eight-week-old, non-aged mice served as controls. LX-403 was mixed in a 10% ethanol solution of PEG400 and administered orally at a concentration of 25 mg/kg daily for 21 days, or administered to the skin, joints, or eyes at a concentration of 1 μM. LX-1801 was mixed in distilled water with 4% DMSO, 30% PEG300, and 5% Tween80 and administered to the skin, joints, or eyes at a concentration of 0.4 μM daily for 21 days. LX-2001 was mixed in PBS and administered to the skin, joints, or eyes at a concentration of […] daily for 21 days. LX-2002 was mixed in distilled water with 4% DMSO, 30% PEG300, and 5% Tween80 and administered to the skin, joints, or eyes at a concentration of 2 μM daily for 21 days. […] LX-2005 was mixed in distilled water with 4% DMSO, 30% PEG300, and 5% Tween80 and administered to the skin, joints, or eyes at a concentration of 90 μM daily for 21 days. LX-2007 was mixed in distilled water with 4% DMSO, 30% PEG300, and 5% Tween80 and administered to the skin, joints, or eyes at a concentration of 90 μM daily for 21 days. […] LX-3002 was mixed in distilled water with 4% DMSO, 30% PEG300, and 5% Tween80 and administered orally at a concentration of 10 mg/kg daily for 21 days. […] LX-5411 was mixed in 5% PBS and administered orally at a concentration of 10 mg/kg daily for 21 days or administered to the skin, joints, or eyes at a concentration of 3 μM. LX-5701 was mixed in PBS and administered orally at a concentration of 360 mg/kg daily for 21 days. LX-6807 was mixed in saline and administered intraperitoneally at a concentration of 1 mg/kg daily for 21 days. LX-2101 or LX-2102 was mixed in PBS solution with 5% DMSO and administered intraperitoneally at a concentration of 20 mg/kg or 10 mg/kg, respectively, daily for 21 days. The control group received only the solution in the same volume. After the end of drug administration, the methods described in each example below were performed.
The amounts of IL6 and MCP1, senescence-associated secretory factors (SASPs), in serum collected from mice were measured using an enzyme-linked immunosorbent assay (ELISA Kit, R&D Systems).

Row | Structure (SMILES) | Open Field Test Time in Center (naturally aged mice [1]) | Lung p16 mRNA [2] | Col1a1 mRNA [2] | Liver p16 mRNA [3] | Col1a1 mRNA [3] | Femur Ctsk mRNA (naturally aged mice [4]) | Heart Sur2a mRNA (naturally aged mice [4]) | Joint Col2a1 mRNA (naturally aged mice [4]) | Kidney Agtr1a mRNA (naturally aged mice [4]) | Liver IL6 mRNA (naturally aged mice [4]) | Liver MMP3 mRNA (naturally aged mice [4]) | Liver p16 mRNA (naturally aged mice [4]) | Open Field Test Time in Center (naturally aged mice [4]) | Skin Col1a1 mRNA (naturally aged mice [4]) | Skin SDF1 mRNA (naturally aged mice [4]) | Muscle Mass (naturally aged mice [4]) | Fat Mass (naturally aged mice [4]) | Cataract incidence (naturally aged mice [4]) | IL6 [5] | MCP1 [5]
1 | C[C@@H]1CC[C@@]23C[C@H](O)C(=O)[C@@]2(O)[C@]1(C)[C@H](OC(=O)CCl)C[C@@H](C1=CCn2c(=O)n(-c4ccccc4)c(=O)n2C1)[C@@H]3C [LX-1801, (2S,3aS,4S,5R,7R,8S,8aS,11R)-7-(1,3-Dioxo-2-phenyl-2,3,5,8-tetrahydro-1H-[1,2,4]triazolo[1,2-a]pyridazin-6-yl)-2,3a-dihydroxy-4,8,11-trimethyl-3-oxooctahydro-1H-4,8a-propanoazulen-5-yl 2-Chloroacetate] | 252.9 (±28) % | 53 (±13.7) % | 38 (±20.8) % | 55 (±9.8) % | 58 (±7.9) % | 69% | 2.7 fold | 2.6 fold | 48% | 53% | 49% | 42% | 287% | 1.9 Fold | 2.2 fold | 0.78 g | 1.16 g | 35% |  | 
2 | O=C(C(C[N+](=O)[O-])=NO)N1CCN(C(c2ccc(Cl)cc2)c2ccc(Cl)cc2)CC1 [LX-403] |  | 32 (±1.4) % | 44 (±3.1) % | 51 (±3.8) % | 48 (±5.8) % | 22% | 2.9 fold | 3.4 fold | 64% | 53% | 45% | 34% | 237% | 2.8 Fold | 2.7 fold | 0.76 g | 0.98 g | 64% |  | 
3 | S=C(N/N=C1\CCCc2cccnc21)N1CCN(c2ccccn2)CC1 [LX-801] | 241.8 (±17.9) % | 48 (±4.8) % | 43 (±10.6) % | 57 (±9.3) % | 63 (±11.5) % | 70% | 2.8 fold | 2.7 fold | 55% | 64% | 35% | 53% | 222% | 2.1 Fold | 2.1 fold | 0.77 g | 1.09 g | 57% |  | 
4 | C#CC(=O)N1[C@@H](CCCC)Cc2cc(OC)ccc2[C@@H]1c1ccc(NC23CC4CC(CC(C4)C2)C3)cc1 [LX-5411] |  | 61 (±13.2) % | 44 (±11.1) % | 53 (±9.9) % | 43 (±16.1) % | 71% | 2.5 fold | 2.0 fold | 68% | 63% | 58% | 65% | 214% | 1.6 Fold | 1.9 fold | 0.74 g | 1.21 g | 52% |  | 
5 | CC1(C)CC[C@]2(NC(=O)C(C)(F)F)CC[C@]3(C)[C@H](C(=O)C=C4[C@@]5(C)C=C(C#N)C(=O)C(C)(C)[C@@H]5CC[C@]43C)[C@@H]2C1 [LX-2101, Omaveloxolone] | 215.3 (±30.8) % |  |  |  |  |  |  |  |  |  |  |  |  |  |  |  |  |  | 49 (±21.8) % | 58 (±9.5) %
6 | COC(=O)[C@]12CCC(C)(C)C[C@H]1[C@H]1C(=O)C=C3[C@@]4(C)C=C(C#N)C(=O)C(C)(C)[C@@H]4CC[C@@]3(C)[C@]1(C)CC2 [LX-2102, Bardoxolone methyl] |  |  |  |  |  |  |  |  |  |  |  |  |  |  |  |  |  |  | 58 (±16.1) % | 61 (±14.0) %
7 | COC(=O)c1ccc([C@H]2c3[nH]c4ccccc4c3C[C@H](C(=O)OC)N2C(=O)CCl)cc1 [LX-405] | 201.5 (±18.3) % |  |  |  |  |  |  |  |  |  |  |  |  |  |  |  |  |  |  | 
8 | COC(=O)[C@H]1Cc2c([nH]c3ccccc23)[C@H](c2ccc(S(C)(=O)=O)cc2)N1C(=O)CCl [LX-5401, methyl (1S,3R)-2-(2-chloroacetyl)-1-(4-(methylsulfonyl)phenyl)-2,3,4,9-tetrahydro-1H-pyrido[3,4-b]indole-3-carboxylate] |  | 67 (±8.1) % | 59 (±12.8) % | 61 (±13.2) % | 72 (±5.9) % | 42% | 1.7 fold | 1.6 fold | 73% | 55% | 81% | 73% | 179% |  |  | 0.69 g | 0.89 g | 77% |  | 
9 | O=C1C2CCN(CC2)C1CNC(=O)C(F)(F)F (stereo not drawn) [LX-5701] |  |  |  |  |  |  |  |  |  |  |  |  |  |  |  |  |  |  | 68 (±14.1) % | 62 (±9.8) %
